Test results published in patent US10039718B2, “Use of solid carrier particles to improve the processability of a pharmaceutical agent” (Gilead Sciences, Inc., priority 2008, dated 2018).

Assay: Water uptake (hygroscopicity) by dynamic vapor sorption (DVS)
Type: physicochemical
Conditions: 75% RH, 25° C., after 1 hour drying under dry nitrogen
Method: The water uptake for AEROPERL® 300 (fumed silica), the Compound, and a sample of AEROPERL® 300 (fumed silica) loaded with 50.0% (w/w) of the Compound was measured as described below.
The compound of formula (I) was dissolved in ethanol and this solution was poured onto a sample of fumed silica that was equal in weight to the amount of the compound of formula (I). The resulting mixture was thoroughly mixed and the solvent was evaporated to provide the compound/AEROPERL® 300 (fumed silica) material used for the uptake study below.
The hygroscopicity of the samples was measured by dynamic vapor sorption (DVS) on a DVS Advantage-1 instrument from Surface Measurement Systems (SMS, Allentown, Pa.). In a DVS experiment the mass increase/decrease of a sample is measured at various relative humidity (RH) levels at a constant temperature. The instrument consists of a microbalance with one pan containing the sample (typically about 5-10 mg of sample) and an empty pan as a reference, and a water vapor generator to produce the desired relative humidity level. All experiments were run at a constant temperature of 25° C. For all experiments the samples were initially dried under a continuous flow of dry nitrogen for 1 hour to establish the dry mass m0. The relative humidity was then increased to 75% and the increase in mass was recorded as the samples take up water.

SMILES: CC(C)c1nc(CN(C)C(=O)NC(CCN2CCOCC2)C(=O)NC(CCC(Cc2ccccc2)NC(=O)OCc2cncs2)Cc2ccccc2)cs1 (stereo not shown) [the Compound]
- water adsorbed (increase in mass at equilibrium): 4.8 % (by weight)
